Reference: ChEMBL document CHEMBL1135887, “Substituted pentacyclic carbazolones as novel muscarinic allosteric agents: synthesis and structure-affinity and cooperativity relationships” (J Med Chem, 2002)

What was measured:
[1] = target: T1, Muscarinic acetylcholine receptor M2 (Homo sapiens) (UniProt P08172); assay: Subtype selectivity and the cooperativity with N-methyl Scopolamine (NMS) at Muscarinic acetylcholine receptor M2; Activity range is 1.2-3
T1 sequence (whole entry): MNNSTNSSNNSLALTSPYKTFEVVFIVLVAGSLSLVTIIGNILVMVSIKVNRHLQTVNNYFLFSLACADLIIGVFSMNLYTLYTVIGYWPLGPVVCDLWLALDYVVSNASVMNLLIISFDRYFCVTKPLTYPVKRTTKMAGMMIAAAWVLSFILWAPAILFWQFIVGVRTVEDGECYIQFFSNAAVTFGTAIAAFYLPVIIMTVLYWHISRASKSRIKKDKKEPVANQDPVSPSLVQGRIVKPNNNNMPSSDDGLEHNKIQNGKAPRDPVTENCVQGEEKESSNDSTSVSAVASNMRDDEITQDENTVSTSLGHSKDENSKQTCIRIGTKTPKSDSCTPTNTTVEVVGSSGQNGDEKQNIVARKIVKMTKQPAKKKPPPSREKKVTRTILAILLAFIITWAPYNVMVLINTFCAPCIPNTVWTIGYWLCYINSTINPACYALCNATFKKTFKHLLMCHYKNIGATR

[2] = target: T2, Muscarinic acetylcholine receptor M4 (Homo sapiens) (UniProt P08173); assay: Logarithm of affinity (log 1/M) at the (N-methyl Scopolamine) NMS-liganded muscarinic acetylcholine receptor M4 by using semiquantitative equilibrium and off-rate assay
T2 sequence (whole entry): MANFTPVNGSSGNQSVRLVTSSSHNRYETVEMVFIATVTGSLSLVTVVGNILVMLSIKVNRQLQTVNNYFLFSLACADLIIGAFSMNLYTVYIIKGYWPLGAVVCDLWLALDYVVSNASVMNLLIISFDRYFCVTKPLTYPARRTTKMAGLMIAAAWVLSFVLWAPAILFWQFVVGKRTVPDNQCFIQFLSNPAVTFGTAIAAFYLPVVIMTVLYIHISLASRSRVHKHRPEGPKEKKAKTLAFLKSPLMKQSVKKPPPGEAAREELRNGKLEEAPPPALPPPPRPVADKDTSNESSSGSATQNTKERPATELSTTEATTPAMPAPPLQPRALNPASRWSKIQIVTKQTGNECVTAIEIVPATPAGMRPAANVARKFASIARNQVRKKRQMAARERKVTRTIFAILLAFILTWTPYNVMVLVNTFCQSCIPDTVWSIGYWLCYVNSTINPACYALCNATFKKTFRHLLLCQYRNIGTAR

[3] = target: Muscarinic acetylcholine receptor M3 (Homo sapiens) (UniProt P20309); assay: Subtype selectivity and the cooperativity with N-methyl Scopolamine (NMS) at Muscarinic acetylcholine receptor M3; […]
Muscarinic acetylcholine receptor M3 (Homo sapiens), sequence (P20309 whole entry, looked up): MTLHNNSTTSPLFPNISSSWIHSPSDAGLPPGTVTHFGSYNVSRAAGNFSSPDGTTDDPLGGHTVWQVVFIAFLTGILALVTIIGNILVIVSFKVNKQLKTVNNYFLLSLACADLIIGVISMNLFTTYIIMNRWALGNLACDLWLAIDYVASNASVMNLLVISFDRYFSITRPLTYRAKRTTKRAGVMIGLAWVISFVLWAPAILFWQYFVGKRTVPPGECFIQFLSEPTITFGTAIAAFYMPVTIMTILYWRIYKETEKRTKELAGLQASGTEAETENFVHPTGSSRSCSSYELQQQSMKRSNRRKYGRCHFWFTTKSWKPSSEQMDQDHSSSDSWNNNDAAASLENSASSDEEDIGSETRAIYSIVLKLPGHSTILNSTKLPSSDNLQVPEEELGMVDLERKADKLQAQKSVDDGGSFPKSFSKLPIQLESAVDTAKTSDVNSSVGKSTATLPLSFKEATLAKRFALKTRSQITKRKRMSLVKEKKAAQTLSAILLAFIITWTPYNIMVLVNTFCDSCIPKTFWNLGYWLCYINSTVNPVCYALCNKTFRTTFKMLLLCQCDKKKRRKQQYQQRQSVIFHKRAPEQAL

[4] = target: Muscarinic acetylcholine receptor M3 (Homo sapiens) (UniProt P20309); assay: Logarithm of affinity (log 1/M) at the (N-methyl Scopolamine) NMS-liganded muscarinic acetylcholine receptor M3 by using semiquantitative equilibrium and off-rate assay
[5] = target: T2, Muscarinic acetylcholine receptor M4 (Homo sapiens); assay: Logarithm of affinity (log 1/M) at the muscarinic acetylcholine receptor M4 by using semiquantitative equilibrium and off-rate assay
[6] = target: Muscarinic acetylcholine receptor M3 (Homo sapiens) (UniProt P20309); assay: Logarithm of affinity (log 1/M) at the muscarinic acetylcholine receptor M3 by using semiquantitative equilibrium and off-rate assay
[7] = target: T1, Muscarinic acetylcholine receptor M2 (Homo sapiens); assay: Logarithm of affinity (log 1/M) at the (N-methyl Scopolamine) NMS-liganded muscarinic acetylcholine receptor M2 by using semiquantitative equilibrium and off-rate assay
[8] = target: T3, Muscarinic acetylcholine receptor M1 (Homo sapiens) (UniProt P11229); assay: Logarithm of affinity (log 1/M) at the (N-methyl Scopolamine) NMS-liganded muscarinic acetylcholine receptor M1 by using semiquantitative equilibrium and off-rate assay
T3 sequence (whole entry): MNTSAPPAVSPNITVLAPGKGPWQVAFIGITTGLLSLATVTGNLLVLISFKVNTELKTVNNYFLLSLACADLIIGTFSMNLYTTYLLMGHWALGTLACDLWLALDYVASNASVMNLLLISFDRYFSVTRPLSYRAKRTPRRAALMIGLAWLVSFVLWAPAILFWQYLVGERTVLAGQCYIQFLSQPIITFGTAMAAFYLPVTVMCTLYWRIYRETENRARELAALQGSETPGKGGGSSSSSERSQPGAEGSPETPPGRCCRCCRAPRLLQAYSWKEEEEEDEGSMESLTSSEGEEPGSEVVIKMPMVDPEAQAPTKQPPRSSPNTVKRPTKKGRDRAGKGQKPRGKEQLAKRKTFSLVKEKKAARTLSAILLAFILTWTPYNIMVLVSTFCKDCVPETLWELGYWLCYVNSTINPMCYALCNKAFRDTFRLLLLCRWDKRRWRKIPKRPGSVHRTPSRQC

[9] = target: T1, Muscarinic acetylcholine receptor M2 (Homo sapiens); assay: Logarithm of affinity (log 1/M) at the muscarinic acetylcholine receptor M2 by using semiquantitative equilibrium and off-rate assay
[10] = target: T3, Muscarinic acetylcholine receptor M1 (Homo sapiens); assay: Logarithm of affinity (log 1/M) at the free muscarinic acetylcholine receptor M1 by using semiquantitative equilibrium and off-rate assay
[11] = target: T3, Muscarinic acetylcholine receptor M1 (Homo sapiens); assay: Subtype selectivity and the cooperativity with N-methyl Scopolamine (NMS) at Muscarinic acetylcholine receptor M1; Activity range is 0.2-0.8
[12] = target: T2, Muscarinic acetylcholine receptor M4 (Homo sapiens); assay: Subtype selectivity and cooperativity with N-methyl Scopolamine (NMS) at Muscarinic acetylcholine receptor M4; Activity range is 1.2-3
[13] = target: Muscarinic acetylcholine receptor M3 (Homo sapiens) (UniProt P20309); assay: Subtype selectivity and the cooperativity with N-methyl Scopolamine (NMS) at muscarinic acetylcholine receptor M3; Activity range is 0.2-0.8
[14] = target: T2, Muscarinic acetylcholine receptor M4 (Homo sapiens); assay: Subtype selectivity and the cooperativity with N-methyl Scopolamine (NMS) at Muscarinic acetylcholine receptor M4
[15] = target: T1, Muscarinic acetylcholine receptor M2 (Homo sapiens); assay: Subtype selectivity and the cooperativity with N-methyl Scopolamine (NMS) at Muscarinic acetylcholine receptor M2
[16] = target: T2, Muscarinic acetylcholine receptor M4 (Homo sapiens); assay: Subtype selectivity and the cooperativity with N-methyl Scopolamine (NMS) at Muscarinic acetylcholine receptor M4; Activity range is 0.81-1.19
[17] = target: T3, Muscarinic acetylcholine receptor M1 (Homo sapiens); assay: Subtype selectivity and the cooperativity with N-methyl Scopolamine (NMS) at Muscarinic acetylcholine receptor M1; Activity range is 1.2-3
[18] = target: T2, Muscarinic acetylcholine receptor M4 (Homo sapiens); assay: Subtype selectivity and the cooperativity with N-methyl Scopolamine (NMS) at Muscarinic acetylcholine receptor M4; Activity range is 0.2-0.8
[19] = target: T3, Muscarinic acetylcholine receptor M1 (Homo sapiens); assay: Subtype selectivity and the cooperativity with N-methyl Scopolamine (NMS) at Muscarinic acetylcholine receptor M1

SMILES	Cooperativity [1]	Log 1/M [2]	Cooperativity [3]	Log 1/M [4]	Log 1/M [5]	Log 1/M [6]	Log 1/M [7]	Log 1/M [8]	Log 1/M [9]	Log 1/M [10]	Cooperativity [11]	Cooperativity [12]	Cooperativity [13]	Cooperativity [14]	Cooperativity [15]	Cooperativity [16]	Cooperativity [17]	Cooperativity [18]	Cooperativity [19]
COc1cccc2c3c4c(cc5c3n(c12)C(=O)CC5)CNCC4	3	5.11		4.75	5.97	5.06	5.55	5.07	5.19	5.4	0.8	3	0.8						
O=C1CCc2cc3c(c4c5cc(CN6CCOCC6)ccc5n1c24)CCNC3	3	5.35		3.93	6.12	4.56	5.79	5.35	5.53	5.47	0.8		0.8			1.19			
O=C1CCc2cc3c(c4c5cccc(O)c5n1c24)CCNC3	3	5.25		4.37	5.43	5.06	5.67	5.38	5.36	5.49	0.8		0.8					0.8	
CC1(C)CC(=O)n2c3ccccc3c3c4c(cc1c32)CCNC4	3	5.8		4.56	5.42	4.86	5.87	5.69	5.69	5.6		3	0.8				3		
COC(=O)c1cccc2c1c1c3c(cc4c1n2C(=O)CC4)CNCC3	3	5.58		4.78	5.6	4.98	5.82	5.34	5.5	5.47	0.8		0.8					0.8	
O=C1CCc2cc3c(c4c5ccccc5n1c24)CNCC3	3	5.48		4.69	5.31	5.78	5.57	5.7	5.51	5.85	0.8	3	0.8						
COC(=O)c1c2c(c3c4cc(OC)c(OC)cc4n4c3c1CCC4=O)CCNC2	3	5.96		4.9	5.86	5.11	6.37	6.05	6.22	5.97	0.8	3	0.8						
COc1cccc2c1c1c3c(cc4c1n2C(=O)CC4(C)C)CNCC3	3	5.79		4.83	5.94	4.92	6.16	5.54	6.21	6.65	0.8		0.8			1.19			

Now from value to compound:

Cooperativity [1]	Log 1/M [2]	Cooperativity [3]	Log 1/M [4]	Log 1/M [5]	Log 1/M [6]	Log 1/M [7]	Log 1/M [8]	Log 1/M [9]	Log 1/M [10]	Cooperativity [11]	Cooperativity [12]	Cooperativity [13]	Cooperativity [14]	Cooperativity [15]	Cooperativity [16]	Cooperativity [17]	Cooperativity [18]	Cooperativity [19]	SMILES
3	5.36	1.19	5.29	5.38	5.23	5.34	5.62	5.24	6.01	0.8	3								O=C1CCc2cc3c(c4c5ccc(O)cc5n1c24)CCNC3
	5.32		3.94	5.39	4.51	5.6	4.57	5.31	5.43	0.8		0.8	> 3	> 3					O=C(O)c1ccc2c(c1)c1c3c(cc4c1n2C(=O)CC4)CNCC3
3	6.47	1.19	5.48	5.61	5.39	6.81	6.51	6.46	6.06				> 3			3			O=C1CCc2cc3c(c4c5ccc(Cl)cc5n1c24)CCNC3
	6.13	1.19	5.27	5.6	5.43	6.28	6.11	5.99	5.84				> 3	> 3				> 3	O=C1CCc2cc3c(c4c5c(O)cccc5n1c24)CCNC3
3	5.97		5.08	6.26	5.71	6.47	5.69	6.09	5.9	0.8	3	0.8							Cc1ccc2c(c1)c1c3c(cc4c1n2C(=O)CC4)CNCC3
3	6.14		5.2	4.64	5.33	6.35	6.07	5.9	5.84		3	0.8				3			COc1ccc2c3c4c(cc5c3n(c2c1)C(=O)CC5)CNCC4
	6.66	1.19	6.05	6.26	5.92	7.12	6.58	6.6	6.24		3			> 3		3			O=C1CCc2cc3c(c4c5c(Cl)cccc5n1c24)CCNC3
3	5.37		4.64	4.99	4.88	5.49	5.49	5.31	5.49		3	0.8				3			O=C1CCc2cc3c(c4c5ccccc5n1c24)CCNC3
3	5.57		4.54	5.6	5.04	6.15	5.23	5.96	5.78	0.8		0.8			1.19				COc1ccc2c(c1)c1c3c(cc4c1n2C(=O)CC4)CNCC3
